Laboratory results taken from ChEMBL document CHEMBL1201862, “PubChem BioAssay data set” (2004).
Active and inactive are the calls of the source.

Key:
[1] = cells; format: functional, cell-based
[2] = cells; format: functional, cell-based; remark: listed apart in the source
[3] = cytotoxicity in OVCAR8 ovarian cancer cells, dose response, PAX8 project, cell-based, plate reader, dry powder samples (AID 743197); format: functional; conditions: OVCAR-8
[4] = NIH:OVCAR-3 ovarian cancer cell cytotoxicity, dose response, PAX8 inhibitor project, plate reader, dry powder samples (AID 743044); format: functional, cell-based
[5] = biological target: Paired box protein Pax-8 (Homo sapiens, UniProt Q06710); experiment: inhibitors of PAX8-driven TPO luciferase reporter, dose response, RMG-I cells, cherry-pick (AID 687027); format: functional, cell-based;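 also: luciferase reporter driven by Pax8 target thyroperoxidase promoter measured by SteadyGlo luminescence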
Chain of Paired box protein Pax-8 (Q06710 whole entry): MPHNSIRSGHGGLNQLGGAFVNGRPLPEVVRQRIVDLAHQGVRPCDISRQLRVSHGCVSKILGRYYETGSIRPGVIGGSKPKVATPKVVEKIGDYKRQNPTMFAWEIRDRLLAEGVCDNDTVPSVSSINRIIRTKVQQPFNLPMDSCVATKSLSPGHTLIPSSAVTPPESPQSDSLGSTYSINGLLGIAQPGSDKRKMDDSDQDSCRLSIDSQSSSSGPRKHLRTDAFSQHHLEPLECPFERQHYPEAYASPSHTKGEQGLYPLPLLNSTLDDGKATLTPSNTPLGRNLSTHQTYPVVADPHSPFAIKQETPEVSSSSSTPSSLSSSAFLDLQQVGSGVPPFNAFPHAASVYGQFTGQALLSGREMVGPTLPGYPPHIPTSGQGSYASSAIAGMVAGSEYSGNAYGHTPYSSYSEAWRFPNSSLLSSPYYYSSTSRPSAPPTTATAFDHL

[6] = IGROV1 ovarian cancer cell cytotoxicity, dose response, PAX8 inhibitor project, plate reader, dry powder samples (AID 743043); format: functional, cell-based; conditions: IGROV-1
[7] = biological target: T1, Protein skinhead-1 (Caenorhabditis elegans, UniProt P34707); format: functional
T1 sequence (P34707 whole entry): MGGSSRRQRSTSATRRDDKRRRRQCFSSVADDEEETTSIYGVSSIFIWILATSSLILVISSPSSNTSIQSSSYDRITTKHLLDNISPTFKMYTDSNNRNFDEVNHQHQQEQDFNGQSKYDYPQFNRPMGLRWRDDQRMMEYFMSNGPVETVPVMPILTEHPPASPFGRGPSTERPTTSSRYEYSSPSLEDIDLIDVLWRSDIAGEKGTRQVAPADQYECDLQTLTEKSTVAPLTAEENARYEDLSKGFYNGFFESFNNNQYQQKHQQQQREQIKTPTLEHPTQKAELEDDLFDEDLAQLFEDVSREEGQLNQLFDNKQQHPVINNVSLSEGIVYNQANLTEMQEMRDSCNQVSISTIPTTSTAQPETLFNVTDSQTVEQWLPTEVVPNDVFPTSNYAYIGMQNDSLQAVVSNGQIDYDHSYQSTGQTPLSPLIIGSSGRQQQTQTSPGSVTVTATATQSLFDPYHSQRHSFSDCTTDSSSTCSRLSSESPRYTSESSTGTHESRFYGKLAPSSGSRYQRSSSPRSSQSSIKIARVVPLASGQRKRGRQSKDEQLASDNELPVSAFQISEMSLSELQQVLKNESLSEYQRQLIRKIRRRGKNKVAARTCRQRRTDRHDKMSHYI

[8] = biological target: T2, Oxysterols receptor LXR-beta (Homo sapiens, UniProt P55055); format: functional, cell-based;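 also: agonist activity at LXR measured by a cell-based luminescence readout across a dose range, run as a counterscreen for daf-12 agonists; HEK293 cells with Gal4-LXR fusion and GAL4-driven luciferase reporter; potency for activation of Gal4-LXR reporter so compounds are agonists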
T2 sequence (P55055 whole entry): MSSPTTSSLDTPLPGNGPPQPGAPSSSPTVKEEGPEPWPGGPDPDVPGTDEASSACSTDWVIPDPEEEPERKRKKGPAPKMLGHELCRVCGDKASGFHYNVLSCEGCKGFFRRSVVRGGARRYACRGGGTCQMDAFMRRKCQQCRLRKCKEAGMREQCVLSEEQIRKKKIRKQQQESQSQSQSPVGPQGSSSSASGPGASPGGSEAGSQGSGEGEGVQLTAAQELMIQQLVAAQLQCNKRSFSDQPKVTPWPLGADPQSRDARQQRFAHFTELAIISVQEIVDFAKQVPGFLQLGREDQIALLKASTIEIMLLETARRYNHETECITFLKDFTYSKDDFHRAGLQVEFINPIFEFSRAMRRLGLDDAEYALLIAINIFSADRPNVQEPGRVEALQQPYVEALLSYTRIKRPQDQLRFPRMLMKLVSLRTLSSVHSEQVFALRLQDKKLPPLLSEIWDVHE

[9] = off-target signal loss in HeLa-CEM21 co-culture – HeLa F-luc CTL cells, cherry-picked, counter-screen for HIV-1 Env fusion inhibitor project, dose response (AID 652040); format: functional, cell-based;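 also: potency for signal decrease marking cytotoxic or nonspecific inhibition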
[10] = inhibitors of clade B AD8 Env fusion, dose response, cell-based, cherry-pick (AID 652062); format: functional;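 also: luciferase signal from cell-cell fusion driven by HIV-1 clade B AD8 Env; potency is for inhibitors of fusion seen as a drop in luminescence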
[11] = ZM109 Env clade C HIV-1 fusion inhibitors, dose response, HeLa effector, CEM target cells, luciferase, cherry-pick (AID 652058); format: functional, cell-based
[12] = inhibitors of HIV Env-driven cell fusion, dose response, cherry-pick (AID 652057); format: functional, cell-based
[13] = inhibitors of PGC1a acetylation in cells, dose response, cell-based, cherry-picked samples (AID 720514); format: functional;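 also: potency may reflect raised or lowered acetylation signal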
[14] = biological target: Large T antigen (Simian virus 40, UniProt P03070); format: functional, Betapolyomavirus macacae;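 also: Confirmatory-stage PubChem screen for compounds that inhibit SV40 T antigen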
Chain of Large T antigen (P03070 whole entry): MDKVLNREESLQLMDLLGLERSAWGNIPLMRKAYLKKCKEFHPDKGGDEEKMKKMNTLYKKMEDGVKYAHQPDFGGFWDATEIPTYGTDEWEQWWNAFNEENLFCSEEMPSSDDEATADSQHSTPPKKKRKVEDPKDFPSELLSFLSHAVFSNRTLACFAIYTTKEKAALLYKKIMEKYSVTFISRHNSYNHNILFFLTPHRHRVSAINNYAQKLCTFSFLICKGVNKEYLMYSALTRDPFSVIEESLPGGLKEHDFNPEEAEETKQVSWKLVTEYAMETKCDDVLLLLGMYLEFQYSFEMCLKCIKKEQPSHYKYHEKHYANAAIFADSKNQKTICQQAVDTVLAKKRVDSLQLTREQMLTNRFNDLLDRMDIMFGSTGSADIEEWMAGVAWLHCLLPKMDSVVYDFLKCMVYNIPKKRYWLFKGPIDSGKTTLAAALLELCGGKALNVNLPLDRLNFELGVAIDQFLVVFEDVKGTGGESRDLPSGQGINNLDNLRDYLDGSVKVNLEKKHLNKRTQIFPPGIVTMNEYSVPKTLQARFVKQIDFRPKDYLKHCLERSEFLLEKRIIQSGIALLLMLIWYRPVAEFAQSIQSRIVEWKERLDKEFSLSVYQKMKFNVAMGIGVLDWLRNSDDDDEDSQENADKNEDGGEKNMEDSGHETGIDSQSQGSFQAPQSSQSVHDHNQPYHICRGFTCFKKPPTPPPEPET

[15] = Shn3 3'UTR reporter inhibitors, dose response, cell-based, Clone20 osteoblasts, firefly luciferase, cherry-picked (AID 624132); format: functional;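 also: firefly luciferase luminescence from reporter carrying the Shn3 3'UTR in osteoblasts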
[16] = A549 cell cytotoxicity, dose response, cytotoxicity control, plate reader, cherry-pick, antagonist series (AID 743412); format: functional, cell-based
[17] = biological target: T3, Heat shock factor protein 1 (Mus musculus, UniProt P38532); experiment: inhibition of MG132-induced HSE-luciferase signal, confirmation, cell-based, NIH3T3, luminescence, dose retest (AID 2382); format: functional;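 also: NIH3T3 fibroblasts with HSF1-driven luciferase reporter stressed by proteasome inhibitor MG132; luminescence from HSF1-driven luciferase expression after 8 hours of MG132 stress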
T3 sequence (P38532 whole entry): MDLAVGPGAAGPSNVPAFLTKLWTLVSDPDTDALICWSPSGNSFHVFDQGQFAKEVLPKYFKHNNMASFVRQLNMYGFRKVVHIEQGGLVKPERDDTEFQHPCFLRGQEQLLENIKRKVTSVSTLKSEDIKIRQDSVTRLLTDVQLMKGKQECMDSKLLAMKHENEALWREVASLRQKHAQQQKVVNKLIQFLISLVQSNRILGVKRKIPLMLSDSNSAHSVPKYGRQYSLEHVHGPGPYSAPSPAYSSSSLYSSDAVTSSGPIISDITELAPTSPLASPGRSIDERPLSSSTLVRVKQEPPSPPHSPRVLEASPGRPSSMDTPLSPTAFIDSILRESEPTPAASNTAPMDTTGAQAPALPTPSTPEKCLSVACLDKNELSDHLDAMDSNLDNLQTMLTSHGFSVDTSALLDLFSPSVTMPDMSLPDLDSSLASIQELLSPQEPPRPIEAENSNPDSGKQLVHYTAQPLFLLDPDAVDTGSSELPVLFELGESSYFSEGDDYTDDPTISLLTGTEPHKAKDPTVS

[18] = LGR2 antagonists, dose response, cell-based, HEK293, CRE-luciferase reporter, cherry pick, set 2 (AID 743343); format: functional;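 also: transfected cells were stimulated with diluted bursicon conditioned medium after compound addition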
[19] = MC4R antagonists, dose response, counter-screen for LGR2 antagonist project, cell-based, plate reader, cherry pick (AID 743444); format: functional;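 also: transfected HEK 293 cells stimulated with alpha-MSH peptide; potency of inhibitors of the alpha-MSH evoked signal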
[20] = control 3'UTR Renilla luciferase suppression, dose response, counter-screen for Shn3 inhibitor project, cell-based, Clone20-Shn3RL, cherry-picked (AID 624133); format: functional
[21] = system: HEK293; experiment: inhibitors of LMP1-driven NF-kB reporter, dose response, cell-based, HEK293, luciferase, cherry-pick (AID 588343); format: functional; conditions: Homo sapiens
[22] = biological target: T4, Histone-lysine N-methyltransferase NSD2 (Homo sapiens, UniProt O96028); format: biochemical
T4 sequence (O96028 whole entry): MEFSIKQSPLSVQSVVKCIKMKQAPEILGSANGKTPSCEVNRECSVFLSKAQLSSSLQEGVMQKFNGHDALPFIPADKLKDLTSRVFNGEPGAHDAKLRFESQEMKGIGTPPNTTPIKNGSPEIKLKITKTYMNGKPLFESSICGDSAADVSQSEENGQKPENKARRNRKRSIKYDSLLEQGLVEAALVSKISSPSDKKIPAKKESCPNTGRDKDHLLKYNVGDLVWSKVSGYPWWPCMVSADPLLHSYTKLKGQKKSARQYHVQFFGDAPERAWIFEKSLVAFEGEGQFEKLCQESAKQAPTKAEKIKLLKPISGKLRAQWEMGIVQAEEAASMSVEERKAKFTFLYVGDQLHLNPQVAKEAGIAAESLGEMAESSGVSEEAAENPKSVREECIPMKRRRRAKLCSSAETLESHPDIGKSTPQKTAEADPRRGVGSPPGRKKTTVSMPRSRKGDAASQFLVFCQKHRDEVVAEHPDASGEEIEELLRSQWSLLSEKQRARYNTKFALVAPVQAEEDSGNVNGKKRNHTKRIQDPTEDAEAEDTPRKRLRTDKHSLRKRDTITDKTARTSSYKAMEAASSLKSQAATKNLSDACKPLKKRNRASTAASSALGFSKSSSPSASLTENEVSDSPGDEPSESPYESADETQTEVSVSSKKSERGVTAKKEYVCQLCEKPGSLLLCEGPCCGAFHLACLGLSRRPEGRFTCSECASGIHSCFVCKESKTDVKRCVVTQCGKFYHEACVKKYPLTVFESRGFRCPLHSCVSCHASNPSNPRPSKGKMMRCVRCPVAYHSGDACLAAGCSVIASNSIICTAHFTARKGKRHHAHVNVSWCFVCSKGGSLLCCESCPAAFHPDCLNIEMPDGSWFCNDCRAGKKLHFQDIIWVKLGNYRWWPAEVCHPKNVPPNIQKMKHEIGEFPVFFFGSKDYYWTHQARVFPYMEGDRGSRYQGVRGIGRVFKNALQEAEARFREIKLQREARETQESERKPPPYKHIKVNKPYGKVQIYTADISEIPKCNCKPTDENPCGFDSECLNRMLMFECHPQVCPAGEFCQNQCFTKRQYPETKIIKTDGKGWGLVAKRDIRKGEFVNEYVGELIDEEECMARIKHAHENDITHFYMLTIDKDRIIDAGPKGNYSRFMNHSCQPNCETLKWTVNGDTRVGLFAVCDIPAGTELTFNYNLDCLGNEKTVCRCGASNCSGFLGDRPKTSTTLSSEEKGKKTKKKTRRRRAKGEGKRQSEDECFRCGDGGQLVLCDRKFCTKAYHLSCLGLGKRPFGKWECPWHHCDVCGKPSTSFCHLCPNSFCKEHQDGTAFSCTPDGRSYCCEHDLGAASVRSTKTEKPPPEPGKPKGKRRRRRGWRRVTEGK

[23] = biological target: Genome polyprotein (dengue virus type 2, UniProt P29990); experiment: Dengue-2 NS5 methyltransferase inhibitors, primary screen, biochemical, confirmation dose response (AID 588689); format: functional
Chain of Genome polyprotein (P29990 2492-3391 limits assumed): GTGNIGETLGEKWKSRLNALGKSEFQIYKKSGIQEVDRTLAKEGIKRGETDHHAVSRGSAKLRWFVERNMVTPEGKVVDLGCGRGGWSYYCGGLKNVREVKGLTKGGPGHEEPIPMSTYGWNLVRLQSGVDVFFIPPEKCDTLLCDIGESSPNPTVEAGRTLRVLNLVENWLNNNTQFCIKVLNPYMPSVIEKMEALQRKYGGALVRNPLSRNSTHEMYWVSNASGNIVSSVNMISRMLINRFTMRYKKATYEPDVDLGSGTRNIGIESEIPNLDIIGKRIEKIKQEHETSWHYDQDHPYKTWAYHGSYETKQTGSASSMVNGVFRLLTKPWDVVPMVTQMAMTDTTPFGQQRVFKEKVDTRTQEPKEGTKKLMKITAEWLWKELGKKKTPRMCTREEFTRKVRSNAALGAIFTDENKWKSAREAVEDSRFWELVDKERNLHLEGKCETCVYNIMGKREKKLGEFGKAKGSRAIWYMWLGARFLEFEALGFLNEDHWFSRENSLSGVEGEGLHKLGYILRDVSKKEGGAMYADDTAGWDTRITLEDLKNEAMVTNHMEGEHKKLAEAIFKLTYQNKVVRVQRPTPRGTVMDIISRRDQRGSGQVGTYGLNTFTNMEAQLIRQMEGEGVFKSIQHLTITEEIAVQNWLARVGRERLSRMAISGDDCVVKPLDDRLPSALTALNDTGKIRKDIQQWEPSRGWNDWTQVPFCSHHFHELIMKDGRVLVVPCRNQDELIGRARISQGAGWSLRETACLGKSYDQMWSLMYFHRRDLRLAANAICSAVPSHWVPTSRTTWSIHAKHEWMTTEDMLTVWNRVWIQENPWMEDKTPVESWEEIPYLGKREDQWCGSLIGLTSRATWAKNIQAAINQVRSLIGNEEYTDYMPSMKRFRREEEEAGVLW

[24] = biological target: T5, Protein RecA (Mycobacterium tuberculosis, UniProt P9WHJ3); experiment: Fluorescence Cell-Free Homogeneous Dose Retest to Identify Inhibitors of RecA-Intein Splicing Activity. [Related pubchem assays (depositor defined):AID2097, AID2223, AID489010, AID492950]; format: functional
T5 sequence (P9WHJ3 whole entry): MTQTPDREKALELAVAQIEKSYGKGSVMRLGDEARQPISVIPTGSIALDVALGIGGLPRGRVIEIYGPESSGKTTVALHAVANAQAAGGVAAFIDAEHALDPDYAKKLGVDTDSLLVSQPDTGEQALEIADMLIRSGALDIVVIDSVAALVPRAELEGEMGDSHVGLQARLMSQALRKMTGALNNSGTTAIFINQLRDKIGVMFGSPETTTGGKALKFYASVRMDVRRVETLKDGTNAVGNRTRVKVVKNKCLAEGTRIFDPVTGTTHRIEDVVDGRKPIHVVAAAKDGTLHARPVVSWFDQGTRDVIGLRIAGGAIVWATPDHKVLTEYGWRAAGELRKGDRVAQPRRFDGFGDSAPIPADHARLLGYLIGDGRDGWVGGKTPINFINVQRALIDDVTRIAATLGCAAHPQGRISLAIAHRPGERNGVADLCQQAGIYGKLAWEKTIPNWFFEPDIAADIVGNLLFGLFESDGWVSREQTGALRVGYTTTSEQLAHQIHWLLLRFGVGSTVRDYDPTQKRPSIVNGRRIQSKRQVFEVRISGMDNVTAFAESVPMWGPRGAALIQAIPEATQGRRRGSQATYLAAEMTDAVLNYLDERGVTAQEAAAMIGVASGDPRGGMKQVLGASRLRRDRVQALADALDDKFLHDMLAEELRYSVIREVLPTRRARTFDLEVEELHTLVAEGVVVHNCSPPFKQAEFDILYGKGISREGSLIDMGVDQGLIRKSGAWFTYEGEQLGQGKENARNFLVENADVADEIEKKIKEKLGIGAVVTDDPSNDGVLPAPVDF

SMILES: CCOC(=O)C(NCCc1ccccc1F)(NC(=O)CC)C(F)(F)F (stereo not given)
- IC50 [1]: > 29.9 µM (inactive)
- EC50 [2]: > 29.9 µM (inactive)

SMILES: C[C@H]1CCCCO[C@@H](CN(C)Cc2ccc(C(F)(F)F)cc2)[C@@H](C)CN([C@@H](C)CO)C(=O)c2cc(NC(=O)c3ccccc3)ccc2O1
- AC50 [3]: > 70 µM (inactive)
- AC50 [4]: 6.48 µM (active)
- AC50 [5]: 7.47 µM (active)
- AC50 [6]: 29.4 µM (active)

SMILES: Brc1ccc(-c2noc(-c3ccccc3)n2)o1
- IC50 [7]: > 100 µM (inactive)
- EC50 [8]: > 67.6 µM (inactive)

SMILES: CCOC(=O)c1c(C)[nH]c(C)c1C(=O)COC(=O)[C@@H](NC(=O)c1ccccc1OCC)C(C)C
- AC50 [9]: 5.72 µM (active)
- AC50 [10]: 2.19 µM (active)
- AC50 [11]: 2.71 µM (active)
- AC50 [12]: 3.71 µM (active)

SMILES: Cc1cc(C(=O)CSc2cccc[n+]2[O-])c(C)n1-c1ccccc1
- EC50 [8]: > 67.5 µM (inactive)

SMILES: N=C1/C(=C/c2ccc(OCc3ccccc3F)cc2)C(=O)N=C2SC(CC(=O)N3CCOCC3)=NN12
- EC50 [8]: > 67.5 µM (inactive)

SMILES: O=c1c2ccccc2nnn1CCc1ccccc1
- EC50 [8]: > 67.4 µM (inactive)

SMILES: COc1cccc(-c2ccc([C@@H]3[C@H]4CNC[C@@H]3N4Cc3ccc4c(c3)OCO4)cc2)c1
- AC50 [13]: 34.3 µM (active)

SMILES: Cc1cc(N/N=C/c2ccc(O)cc2O)nc(N2CCOCC2)n1
- IC50 [1]: > 29.9 µM (inactive)
- EC50 [2]: > 29.9 µM (inactive)
- IC50 [14]: > 100 µM (active)

SMILES: Cc1cc(O)nc(SCC(=O)c2ccc(F)c(C)c2)n1
- AC50 [13]: 26.9 µM (active)

SMILES: O=C(O)c1cccc(COc2ccc(CO)cc2Cl)c1
- AC50 [15]: 1.04 µM (active)
- AC50 [16]: > 52 µM (inactive)
- EC50 [17]: 0.375 µM (active)
- AC50 [18]: 0.296 µM (active)
- AC50 [19]: 0.274 µM (active)
- AC50 [20]: 35 µM (active)

SMILES: C=CCNC1=NN=C(c2cc(C)n(CCOC)c2C)CS1
- AC50 [9]: 3.9 µM (active)
- AC50 [10]: 4.19 µM (active)
- AC50 [11]: 8.09 µM (active)
- AC50 [21]: 2.08 µM (active)
- AC50 [12]: 1.56 µM (active)

SMILES: Cc1ccc(S(=O)(=O)/N=C2\C=C(NS(=O)(=O)c3ccc(C)cc3)C(=O)c3ccccc32)cc1
- AC50 [22]: 2.98 µM (active)
- IC50 [23]: 30.6 µM (active)

SMILES: CCCCNC(=O)c1c(N)n(Cc2ccc3c(c2)OCO3)c2nc3ccccc3nc12
- AC50 [22]: 19.4 µM (active)
- EC50 [24]: 56.3 µM (active)
